# Experimental data as given in patent US20010031865A1, “Substituted 3-phenyluracils” (priority 1991, published 2001).
# Tests used:
# [1] = tested on: young, 4-leaved cotton plants of the Stoneville 825 variety; test: Defoliation of young cotton plants (Use Example 1); format: in vivo; conditions: after 13 days
# Experimental: The comparative agent used was
# A 6,7-dihydrodipyrido[1,2-alpha:2′, 1′-c]pyridilium as the dibromide monohydrate salt (common name: Diquat®).
# The comparative agent was used in the form-of the preformulated commercial product.
# The test plants used were young, 4-leaved cotton plants (without cotyledons) of the Stoneville 825 variety, which were grown under greenhouse conditions (relative humidity from 50 to 70%; day/night temperature 27/20° C.).
# The amount of water applied was equivalent to […]. After 13 days, the number of dropped leaves and the degree of defoliation in % were determined.
# [2] = tested on: undesirable broad-leaved plants and grasses; test: Greenhouse herbicidal test, postemergence treatment; format: in vivo; conditions: for control of undesirable broad-leaved plants and grasses: postemergence use of 0.5 kg/ha, greenhouse
# Experimental: The seeds of the test plants were sown separately according to species. For the purpose of the postemergence treatment, the test plants were grown in the test vessels themselves or were planted in the test vessels a few days beforehand. The active ingredients suspended or emulsified in water were not applied until a height of growth of from 3 to 15 cm, depending on the form of growth. The plants were kept at 10-25° C. or 20-35° C., according to species. The test periods extended over from 2 to 4 weeks. During this time, the plants were tended and their reaction to the individual treatments was evaluated. Rating was based on a scale from 0 to 100. 100 means no emergence of the plants or complete destruction of at least the above-ground parts and 0 means no damage on normal growth. The plants used in the greenhouse experiments consisted of the following species: [table]
# [3] = converted application rate 0.10 kg/ha
structure (smiles),measurement,setting,value
"c1cc[n+]2c(c1)-c1cccc[n+]1CC2 [A, 6,7-dihydrodipyrido[1,2-alpha:2′, 1′-c]pyridilium, reference compound]",Defoliation,[1]; [3],0%
"Cn1c(C(F)(F)F)cc(=O)n(-c2ccc(Cl)c(C=O)c2)c1=O [compound 1.1, 3-(4-Chloro-3-formylphenyl)-2,4-dioxo-1-methyl-6-trifluoromethyl-1,2,3,4-tetrahydropyrimidine]",control of undesirable broad-leaved plants and grasses,[2],very readily controlled
"CCO/N=C/c1cc(-n2c(=O)cc(C(F)(F)F)[nH]c2=O)ccc1Cl [compound 1.4, 3-[4-Chloro-3-(ethoximinomethyl)-phenyl]-2,4-dioxo-6-trifluoromethyl-1,2,3,4-tetrahydropyrimidine]",melting point,,221 to 223 °C
"CCO/N=C/c1cc(-n2c(=O)cc(C(F)(F)F)n(C)c2=O)ccc1Cl [compound 1.5, 3-[4-Chloro-3-(ethoximinomethyl)-phenyl]-2,4-dioxo-1-methyl-6-trifluoromethyl-1,2,3,4-tetrahydropyrimidine]",control of undesirable broad-leaved plants and grasses,[2],very readily controlled
same,melting point,,132 to 134 °C
"CCCCOC(=O)/C(Cl)=C/c1cc(-n2c(=O)cc(C(F)(F)F)n(C)c2=O)ccc1Cl [compound 1.15, 3-[4-Chloro-3-(2-chloro-2-butoxycarbonylethen-1-yl)-phenyl]-2,4-dioxo-1-methyl-6-trifluoromethyl-1,2,3,4-tetrahydropyrimidine]",control of undesirable broad-leaved plants and grasses,[2],very readily controlled
"COC(=O)/C(C#N)=C/c1cc(-n2c(=O)cc(C(F)(F)F)n(C)c2=O)ccc1Cl [compound 1.22, 3-[4-Chloro-3-(2-cyano-2-methoxycarbonylethenyl)-phenyl]-2,4-dioxo-1-methyl-6-trifluoromethyl-1,2,3,4-tetrahydropyrimidine]",control of undesirable broad-leaved plants and grasses,[2],very readily controlled
"CCOC(=O)N/N=C/c1cc(-n2c(=O)cc(C(F)(F)F)n(C)c2=O)ccc1Cl [compound 1.91, 3-(4-Chloro-3-ethoxycarbonylhydrazonomethylphenyl)-2,4-dioxo-1-methyl-6-trifluoromethyl-1,2,3,4-tetrahydropyrimidine]",melting point,,219 to 221 °C
"Cn1c(C(F)(F)F)cc(=O)n(-c2ccc(Cl)c(C3OCCCO3)c2)c1=O [compound 2.1, 3-[4-Chloro-3-(1,3-dioxan-2-yl)-phenyl]-2,4-dioxo-1-methyl-6-trifluoromethyl-1,2,3,4-tetrahydropyrimidine]",control of undesirable broad-leaved plants and grasses,[2],very readily controlled
"COC(=O)/C(Cl)=C/c1cc(-n2c(OC)nc(C(F)(F)F)cc2=O)ccc1Cl [compound 3.1, 3-[4-Chloro-3-(2-chloro-2-methoxycarbonylethenyl)-phenyl]-2-methoxy-4-oxo-6-trifluoromethyl-3,4-dihydro-pyrimidine]",Defoliation,[1]; converted application rate 0.05 kg/ha,53%
same,Defoliation,[1]; [3],73%
same,control of undesirable broad-leaved plants,"[2]; postemergence method, application rates of 0.06 and 0.03 kg/ha",very readily controlled
